In patent US9023789B2, “Amylin analogs and pharmaceutical compositions thereof” (Novo Nordisk A/S, priority 2012, dated 2015):
Numbered stars: 1 amine (or outer) side, 2 acyl side, 3 side chain; on linkers, the order of the positions; unused ones are H or OH. Bridge positions count the residues as written; N and C are the ends. Side chains are listed from the residue outwards. Peptide text beside a SMILES is read from it. * marks the point of attachment. C20 diacid = O=C(O)CCCCCCCCCCCCCCCCCCC(=O)*; γGlu = O=C(O)[C@H](CCC(=O)[*:2])N[*:1]

Test: ASSAY (III) ThT fibrillation assay for physical stability
Type: physicochemical
How it was run: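 Formulations with 1 μM ThT, pH adjusted as required, incubated at 37 °C with 960 rpm orbital shaking; fluorescence (ex 444/em 485 nm) read every 20 min. Fibrillation reported as mean ThT fluorescence ± SD of 4–8 replicates at time points; polypeptide concentration measured by reverse-phase HPLC before and after, post-centrifugation.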

| SMILES | ThT pH 4.0 lag time (h) |
| --- | --- |
| CC[C@H](C)[C@H](NC(=O)[C@H](C)NC(=O)CNC(=O)[C@H](Cc1ccccc1)NC(=O)[C@H](CC(N)=O)NC(=O)[C@@H]1CCCN1C(=O)[C@H](CO)NC(=O)[C@H](CO)NC(=O)[C@H](Cc1c[nH]cn1)NC(=O)[C@H](CCCNC(=N)N)NC(=O)[C@H](CC(C)C)NC(=O)[C@H](Cc1ccccc1)NC(=O)[C@H](CCC(=O)O)NC(=O)[C@H](C)NC(=O)[C@H](CC(C)C)NC(=O)[C@H](CCCNC(=N)N)NC(=O)[C@H](CCC(N)=O)NC(=O)[C@@H](NC(=O)[C@H](C)NC(=O)[C@@H]1CSSC[C@H](NC(=O)[C@@H](N)CCCCNC(=O)CC[C@H](NC(=O)CCCCCCCCCCCCCCCCCCC(=O)O)C(=O)O)C(=O)N[C@@H](CC(N)=O)C(=O)N[C@@H]([C@@H](C)O)C(=O)N[C@@H](C)C(=O)N[C@@H]([C@@H](C)O)C(=O)N1)[C@@H](C)O)C(=O)N1CCC[C@H]1C(=O)N[C@@H](CO)C(=O)N[C@@H](CO)C(=O)N[C@H](C(=O)N[C@@H](CC(N)=O)C(=O)N[C@H](C(=O)NCC(=O)N1CCC[C@H]1C(=O)N[C@@H](CC(N)=O)C(=O)N[C@H](C(=O)N1CCC[C@H]1C(N)=O)[C@@H](C)O)C(C)C)[C@@H](C)O [Example 114] (H-K([γGlu-C20 diacid])CNTATCATQRLAEFLRHSSPNFGAIPSSTNVGPNTP-NH2; disulfide 2-7 (inferred); N-terminus assumed) | 45 h |
| CC[C@H](C)[C@H](NC(=O)[C@H](C)NC(=O)CNC(=O)[C@H](Cc1ccccc1)NC(=O)[C@H](CC(N)=O)NC(=O)[C@@H]1CCCN1C(=O)[C@H](CO)NC(=O)[C@H](CO)NC(=O)[C@H](Cc1c[nH]cn1)NC(=O)[C@H](CCCNC(=N)N)NC(=O)[C@H](CC(C)C)NC(=O)[C@H](Cc1ccccc1)NC(=O)[C@H](CC(N)=O)NC(=O)[C@H](C)NC(=O)[C@H](CC(C)C)NC(=O)[C@H](CCCNC(=N)N)NC(=O)[C@H](CCC(N)=O)NC(=O)[C@@H](NC(=O)[C@H](C)NC(=O)[C@@H]1CSSC[C@H](NC(=O)[C@H](CCCCN)NC(=O)CC[C@H](NC(=O)CCCCCCCCCCCCCCCCCCC(=O)O)C(=O)O)C(=O)N[C@@H](CC(N)=O)C(=O)N[C@@H]([C@@H](C)O)C(=O)N[C@@H](C)C(=O)N[C@@H]([C@@H](C)O)C(=O)N1)[C@@H](C)O)C(=O)N1CCC[C@H]1C(=O)N[C@@H](CO)C(=O)N[C@@H](CO)C(=O)N[C@H](C(=O)N[C@@H](CC(N)=O)C(=O)N[C@H](C(=O)NCC(=O)N[C@@H](CO)C(=O)N[C@@H](CCC(=O)O)C(=O)N[C@H](C(=O)N[C@@H](Cc1ccc(O)cc1)C(N)=O)[C@@H](C)O)C(C)C)[C@@H](C)O [Example 23] | 3 h |
| CC[C@H](C)[C@H](NC(=O)[C@H](C)NC(=O)CNC(=O)[C@H](Cc1ccccc1)NC(=O)[C@H](CC(N)=O)NC(=O)[C@@H]1CCCN1C(=O)[C@H](CO)NC(=O)[C@H](CO)NC(=O)[C@H](Cc1c[nH]cn1)NC(=O)[C@H](CCCNC(=N)N)NC(=O)[C@H](CC(C)C)NC(=O)[C@H](Cc1ccccc1)NC(=O)[C@H](CCC(=O)O)NC(=O)[C@H](C)NC(=O)[C@H](CC(C)C)NC(=O)[C@H](CCCNC(=N)N)NC(=O)[C@H](CCC(N)=O)NC(=O)[C@@H](NC(=O)[C@H](C)NC(=O)[C@@H]1CSSC[C@H](NC(=O)[C@@H](N)CCCCNC(=O)CC[C@H](NC(=O)CC[C@H](NC(=O)CCCCCCCCCCCCCCCCCCC(=O)O)C(=O)O)C(=O)O)C(=O)N[C@@H](CC(N)=O)C(=O)N[C@@H]([C@@H](C)O)C(=O)N[C@@H](C)C(=O)N[C@@H]([C@@H](C)O)C(=O)N1)[C@@H](C)O)C(=O)N1CCC[C@H]1C(=O)N[C@@H](CO)C(=O)N[C@@H](CO)C(=O)N[C@H](C(=O)N[C@@H](CC(N)=O)C(=O)N[C@H](C(=O)NCC(=O)N1CCC[C@H]1C(=O)N[C@@H](CC(N)=O)C(=O)N[C@H](C(=O)N[C@@H](Cc1ccccc1)C(N)=O)[C@@H](C)O)C(C)C)[C@@H](C)O [Example 127] (H-K([γGlu-γGlu-C20 diacid])CNTATCATQRLAEFLRHSSPNFGAIPSSTNVGPNTF-NH2; disulfide 2-7 (inferred)) | 25 h |
| CC[C@H](C)[C@H](NC(=O)[C@H](C)NC(=O)CNC(=O)[C@H](Cc1ccccc1)NC(=O)[C@H](CC(N)=O)NC(=O)[C@@H]1CCCN1C(=O)[C@H](CO)NC(=O)[C@H](CO)NC(=O)[C@H](Cc1c[nH]cn1)NC(=O)[C@H](CCCNC(=N)N)NC(=O)[C@H](CC(C)C)NC(=O)[C@H](Cc1ccccc1)NC(=O)[C@H](CCC(=O)O)NC(=O)[C@H](C)NC(=O)[C@H](CC(C)C)NC(=O)[C@H](CCCNC(=N)N)NC(=O)[C@H](CCC(N)=O)NC(=O)[C@@H](NC(=O)[C@H](C)NC(=O)[C@@H]1CSSC[C@H](NC(=O)[C@H](CCCCN)NC(=O)COCCOCCNC(=O)COCCOCCNC(=O)CC[C@H](NC(=O)CCCCCCCCCCCCCCCCCCC(=O)O)C(=O)O)C(=O)N[C@@H](CC(N)=O)C(=O)N[C@@H]([C@@H](C)O)C(=O)N[C@@H](C)C(=O)N[C@@H]([C@@H](C)O)C(=O)N1)[C@@H](C)O)C(=O)N1CCC[C@H]1C(=O)N[C@@H](CO)C(=O)N[C@@H](CO)C(=O)N[C@H](C(=O)N[C@@H](CC(N)=O)C(=O)N[C@H](C(=O)NCC(=O)N[C@@H](CO)C(=O)N[C@@H](CC(N)=O)C(=O)N[C@H](C(=O)N[C@@H](Cc1ccc(O)cc1)C(N)=O)[C@@H](C)O)C(C)C)[C@@H](C)O [Example 19] | 9 h |

Second part, the compound after the results:

| ThT pH 4.0 lag time (h) | SMILES |
| --- | --- |
| 41 h | CC[C@H](C)[C@H](NC(=O)[C@H](C)NC(=O)CNC(=O)[C@H](Cc1ccccc1)NC(=O)[C@H](CC(N)=O)NC(=O)[C@@H]1CCCN1C(=O)[C@H](CO)NC(=O)[C@H](CO)NC(=O)[C@H](Cc1c[nH]cn1)NC(=O)[C@H](CCCNC(=N)N)NC(=O)[C@H](CC(C)C)NC(=O)[C@H](Cc1ccccc1)NC(=O)[C@H](CCC(=O)O)NC(=O)[C@H](C)NC(=O)[C@H](CC(C)C)NC(=O)[C@H](CCCNC(=N)N)NC(=O)[C@H](CCC(N)=O)NC(=O)[C@@H](NC(=O)[C@H](C)NC(=O)[C@@H]1CSSC[C@H](NC(=O)[C@@H](N)CCCCNC(=O)CC[C@H](NC(=O)CCCCCCCCCCCCCCCCCCC(=O)O)C(=O)O)C(=O)N[C@@H](CC(N)=O)C(=O)N[C@@H]([C@@H](C)O)C(=O)N[C@@H](C)C(=O)N[C@@H]([C@@H](C)O)C(=O)N1)[C@@H](C)O)C(=O)N1CCC[C@H]1C(=O)N[C@@H](CO)C(=O)N[C@@H](CO)C(=O)N[C@H](C(=O)N[C@@H](CC(N)=O)C(=O)N[C@H](C(=O)NCC(=O)N[C@@H](CO)C(=O)N[C@@H](Cc1c[nH]cn1)C(=O)N[C@H](C(=O)N[C@@H](Cc1ccc(O)cc1)C(N)=O)[C@@H](C)O)C(C)C)[C@@H](C)O [Example 128] (H-K([γGlu-C20 diacid])CNTATCATQRLAEFLRHSSPNFGAIPSSTNVGSHTY-NH2; disulfide 2-7 (inferred); N-terminus assumed) |
| 28 h | CC[C@H](C)[C@H](NC(=O)[C@H](C)NC(=O)CNC(=O)[C@H](Cc1ccccc1)NC(=O)[C@H](CC(N)=O)NC(=O)[C@@H]1CCCN1C(=O)[C@H](CO)NC(=O)[C@H](CO)NC(=O)[C@H](Cc1c[nH]cn1)NC(=O)[C@H](CCCNC(=N)N)NC(=O)[C@H](CC(C)C)NC(=O)[C@H](Cc1ccccc1)NC(=O)[C@H](CC(N)=O)NC(=O)[C@H](C)NC(=O)[C@H](CC(C)C)NC(=O)[C@H](CCCNC(=N)N)NC(=O)[C@H](CCC(N)=O)NC(=O)[C@@H](NC(=O)[C@H](C)NC(=O)[C@@H]1CSSC[C@H](NC(=O)[C@@H](N)CCCCNC(=O)CC[C@H](NC(=O)CCCCCCCCCCCCCCCCCCC(=O)O)C(=O)O)C(=O)N[C@@H](CC(N)=O)C(=O)N[C@@H]([C@@H](C)O)C(=O)N[C@@H](C)C(=O)N[C@@H]([C@@H](C)O)C(=O)N1)[C@@H](C)O)C(=O)N1CCC[C@H]1C(=O)N[C@@H](CO)C(=O)N[C@@H](CO)C(=O)N[C@H](C(=O)N[C@@H](CC(N)=O)C(=O)N[C@H](C(=O)NCC(=O)N[C@@H](CO)C(=O)N[C@@H](CCC(=O)O)C(=O)N[C@H](C(=O)N[C@@H](Cc1ccc(O)cc1)C(N)=O)[C@@H](C)O)C(C)C)[C@@H](C)O [Example 27] |
| 45 h | CC[C@H](C)[C@H](NC(=O)[C@H](C)NC(=O)CNC(=O)[C@H](Cc1ccccc1)NC(=O)[C@H](CC(N)=O)NC(=O)[C@@H]1CCCN1C(=O)[C@H](CO)NC(=O)[C@H](CO)NC(=O)[C@H](Cc1c[nH]cn1)NC(=O)[C@H](CCCNC(=N)N)NC(=O)[C@H](CC(C)C)NC(=O)[C@H](Cc1ccccc1)NC(=O)[C@H](CCC(=O)O)NC(=O)[C@H](C)NC(=O)[C@H](CC(C)C)NC(=O)[C@H](CCCNC(=N)N)NC(=O)[C@H](CCC(N)=O)NC(=O)[C@@H](NC(=O)[C@H](C)NC(=O)[C@@H]1CSSC[C@H](NC(=O)[C@H](CCCCN)NC(=O)CC[C@H](NC(=O)CCCCCCCCCCCCCCCCCCC(=O)O)C(=O)O)C(=O)N[C@@H](CC(N)=O)C(=O)N[C@@H]([C@@H](C)O)C(=O)N[C@@H](C)C(=O)N[C@@H]([C@@H](C)O)C(=O)N1)[C@@H](C)O)C(=O)N1CCC[C@H]1C(=O)N[C@@H](CO)C(=O)N[C@@H](CO)C(=O)N[C@H](C(=O)N[C@@H](CC(N)=O)C(=O)N[C@H](C(=O)NCC(=O)N[C@@H](CO)C(=O)N[C@@H](CCC(=O)O)C(=O)N[C@H](C(=O)N[C@@H](Cc1ccc(O)cc1)C(N)=O)[C@@H](C)O)C(C)C)[C@@H](C)O [Example 22] ({C20 diacid-γGlu}-KCNTATCATQRLAEFLRHSSPNFGAIPSSTNVGSETY-NH2; disulfide 2-7) |
